The source made the active and inactive calls. No rule for the calls is given here.
Molecular target: BioA, adenosylmethionine-8-amino-7-oxononanoate aminotransferase (Mycobacterium tuberculosis)
Experiment: BioA aminotransferase inhibition, biochemical, coupled fluorescence displacement, 20-point, dry powder, dose response (AID 743357)
Conditions: coupled fluorescence displacement assay
[1] = measured here: test 1 replicate AC50
[2] = measured here: test 2 replicate AC50

SMILES	activity change, negative = inhibition (at 10 µM (top of the series))	AC50	other results
COc1ccc(NC(=O)N2CC[C@@H]3[C@@H](CO)N(C)c4ccc(-c5cccc(F)c5)cc4[C@@H]32)cc1	inactive		
CN1c2ccc(-c3cccc(F)c3)cc2[C@H]2[C@H](CCN2C(=O)Nc2ccccc2F)[C@H]1CO	inactive		
CC(=O)c1ccc(N2CCN(C(=O)c3ccc4c(c3C)OCO4)CC2)cc1		53.7 nM	AC50 [1]: 53.7 nM
CCCCCCCC(=O)N1CC[C@@H]2[C@@H](CO)N(C)c3ccc(-c4cccc(F)c4)cc3[C@@H]21	inactive		
COc1cccc(NC(=O)N2CC[C@@H]3[C@@H](CO)N(C)c4ccc(-c5cccc(F)c5)cc4[C@@H]32)c1	inactive		
CC(=O)c1ccc(N2CCN(C(=O)c3cccc4c3OCO4)CC2)cc1		1580 nM	AC50 [1]: 1580 nM
O=C(c1ccc2c(c1)OCO2)N1CCN(c2ccc(C(F)(F)F)cc2)CC1	inactive		AC50 [1]: > 20000 nM
CC(=O)c1ccc(N2CCN(C(=O)c3ccc4c(c3)OC(C)(C)O4)CC2)cc1	inactive		
COC(=O)CCCCCCC(=O)N1CC[C@@H]2[C@@H](CO)N(C)c3ccc(-c4cccc(F)c4)cc3[C@@H]21	inactive		AC50 [2]: > 20000 nM
O=C(c1ccc2c(c1)OCO2)N1CCN(c2ccc(S(=O)(=O)C(F)(F)F)cc2)CC1	inactive		
CN(C)S(=O)(=O)c1ccc(N2CCN(C(=O)c3ccc4c(c3)OCO4)CC2)cc1	inactive		
CC(=O)c1ccc(N2CCN(C(=O)c3ccccc3F)CC2)cc1		6400 nM	AC50 [2]: 6400 nM
CC(=O)c1ccc(N2CCN(C(=O)c3ccc4c(c3)OCO4)[C@H](C)C2)cc1		55.3 nM	AC50 [2]: 55.3 nM
CC(=O)c1ccc(N2CCN(S(=O)(=O)c3ccc4c(c3)OCO4)CC2)cc1	inactive		
CC(C)NC(=O)N1CC[C@@H]2[C@@H](CO)N(C)c3ccc(-c4ccc(F)cc4)cc3[C@@H]21	inactive		AC50 [2]: > 20000 nM
COc1ccccc1C(=O)N1CCN(c2ccc(C(C)=O)cc2)CC1	inactive		AC50 [2]: > 20000 nM
CCCNC(=O)N1CC[C@@H]2[C@@H](CO)N(C)c3ccc(-c4ccc(F)cc4)cc3[C@@H]21	inactive		AC50 [2]: > 20000 nM
CC(=O)c1ccc(N2CCCN(C(=O)c3ccc4c(c3)OCO4)CC2)cc1		289 nM	AC50 [1]: 289 nM
CC(=O)c1ccc(N2CCN(C(=O)Nc3ccc4c(c3)OCO4)CC2)cc1	inactive		AC50 [1]: > 20000 nM
CC(=O)c1ccc(N2CC3CC2CN3C(=O)c2ccc3c(c2)OCO3)cc1 (stereo not given)	inactive		AC50 [1]: > 20000 nM
CC(=O)c1ccc(N2CCN(C(=O)c3ccc(Cl)c(Cl)c3)CC2)cc1		217 nM	AC50 [1]: 217 nM
COc1ccccc1NC(=O)N1CC[C@@H]2[C@@H](CO)N(C)c3ccc(-c4cccc(F)c4)cc3[C@@H]21	inactive		
CNC(=O)c1ccc(N2CCN(C(=O)c3ccc4c(c3)OCO4)CC2)cc1	inactive		AC50 [2]: > 20000 nM
O=C(c1ccc2c(c1)OCO2)N1CCN(c2ccc(OC(F)(F)F)cc2)CC1	inactive		
CN1c2ccc(-c3cccc(F)c3)cc2[C@H]2[C@H](CCN2C(=O)Cc2ccccc2)[C@H]1CO	inactive		

SMILES	activity change, negative = inhibition (at 10 µM (top of the series))	AC50	other results
CNS(=O)(=O)c1ccc(N2CCN(C(=O)c3ccc4c(c3)OCO4)CC2)cc1	inactive		
CC(=O)c1ccc(N2CCN(C(=O)c3ccccc3Cl)CC2)cc1		8240 nM	AC50 [2]: 8240 nM
CC(=O)c1ccc(N2CCN(C(=O)c3ccc4snnc4c3)CC2)cc1		1850 nM	AC50 [1]: 1850 nM
COCC(=O)N1CC[C@@H]2[C@@H](CO)N(C)c3ccc(-c4cccc(F)c4)cc3[C@@H]21		55.4 nM	AC50 [2]: 55.4 nM
CN1c2ccc(-c3cccc(F)c3)cc2[C@H]2[C@H](CCN2C(=O)c2ccc3c(c2)OCO3)[C@@H]1CO	inactive		
CN1c2ccc(-c3cccc(F)c3)cc2[C@H]2[C@H](CCN2C(=O)Cc2cccnc2)[C@H]1CO	inactive		AC50 [2]: > 20000 nM
CN1c2ccc(-c3ccc(F)cc3)cc2[C@H]2[C@H](CCN2C(=O)Nc2ccc(F)cc2)[C@H]1CO	inactive		
COc1ccc(NC(=O)N2CC[C@@H]3[C@@H](CO)N(C)c4ccc(-c5ccc(F)cc5)cc4[C@@H]32)cc1	inactive		
CN1c2ccc(-c3ccc(F)cc3)cc2[C@H]2[C@H](CCN2C(=O)Cc2cccnc2)[C@H]1CO			activity change, negative = inhibition (at 9 µM (top of the series)): inactive
CC(=O)c1ccc(N2CCN(C(=O)c3cc4c(cc3Cl)OCO4)CC2)cc1		6570 nM	AC50 [1]: 6570 nM
CN1c2ccc(-c3cccc(F)c3)cc2[C@@H]2[C@@H](CCN2C(=O)c2ccc3c(c2)OCO3)[C@@H]1CO			activity change, negative = inhibition (at 5.6 µM (top of the series)): inactive
CC(=O)c1ccc(N2CCN(C(=O)c3ccc4ocnc4c3)CC2)cc1		198 nM	AC50 [1]: 198 nM
CN1c2ccc(-c3ccc(F)cc3)cc2[C@H]2[C@H](CCN2C(=O)Cc2ccccn2)[C@H]1CO	inactive		
CN1c2ccc(-c3ccc(F)cc3)cc2[C@H]2[C@H](CCN2C(=O)Nc2cc(F)ccc2F)[C@H]1CO	inactive		
COc1cc(C(=O)N2CCN(c3ccc(C(C)=O)cc3)CC2)cc2c1OCO2		181 nM	AC50 [1]: 181 nM
CC(=O)c1ccc(N2CCN(C(=O)c3cc4c(cn3)OCO4)CC2)cc1	inactive		AC50 [1]: > 20000 nM
CC(=O)c1ccc(N2CC3(CN(C(=O)c4ccc5c(c4)OCO5)C3)C2)cc1	inactive		
CC(=O)c1ccc(N2CCN(C(=O)c3ccc4c(c3)OC(F)(F)O4)CC2)cc1	inactive		
CCC(=O)N1CC[C@@H]2[C@@H](CO)N(C)c3ccc(-c4ccc(F)cc4)cc3[C@@H]21		2820 nM	AC50 [2]: 2820 nM
CC(=O)c1ccc(N2CCN(C(=O)c3cc4c(cc3C)OCO4)CC2)cc1		1090 nM	AC50 [1]: 1090 nM
COc1ccccc1NC(=O)N1CC[C@@H]2[C@@H](CO)N(C)c3ccc(-c4ccc(F)cc4)cc3[C@@H]21	inactive		
CC(=O)c1ccc(NCCNC(=O)c2ccc3c(c2)OCO3)cc1	inactive		
CC(=O)c1ccc(N2CCN(C(=O)c3ccc4c(c3)OCO4)CC2)cc1		49.7 nM	AC50 [1]: 30.1 nM; AC50 [2]: 69.2 nM
CN1c2ccc(-c3cccc(F)c3)cc2[C@@H]2[C@@H](CCN2C(=O)c2ccc3c(c2)OCO3)[C@H]1CO	inactive		

From PubChem BioAssay AID743357 (Broad Institute, 2014)
